Legend:
cells = conditions: literature; cited from earlier work
[1] = test system: E. coli (pRSF-PAL-PAD_pET-SMO-SOI-PAR); assay type: cell-based
Experimental: (§1) The reaction for FIG. 17b was done at 30° C. and 250 rpm in 2 ml KP buffer (100 mM, pH 8.0) containing 0.5% (w/v) glucose, 5 g cdw/L of cell suspension, 10 mM L-phenylalanine, and (•) 0 or (▴) 3 mM of 2-PE in the aqueous phase, with n-hexadecane in the organic phase.
The product inhibition was investigated by adding different concentration of 2-PE to the cell suspension (10 g cdw/L) of E. coli (pRSF-PAL-PAD_pET-SMO-SOI-PAR) in KP buffer (100 mM, pH 8.0) containing 0.5% glucose in aqueous phase with n-hexadecane as the organic phase, followed by the incubation at 30° C. and 250 rpm for 3 h.
Biotransformation was done in aqueous phase with KP buffer (100 mM, pH 8.0) containing cell suspension (10 g cdw/l), 0.5% glucose, and 50 mM L-phenylalanine as initial substrate while n-hexadecane as the organic phase (250 rpm, 2 h, 30° C.)

[2] = Partition coefficient in aqueous-organic biphasic system; assay type: physicochemical; conditions: for Partition coefficient K value: phase ratio 1:1
Experimental: FIGS. 18a and 18b show (FIG. 18a) partition coefficient of 2-PE in aqueous-organic biphasic system. Partition coefficient measured at a phase ratio of 1:1. KP buffer (100 mM, pH 8.0) was utilized as the aqueous buffer. All data were obtained from the mean values of triplicate with standard deviations through HPLC analysis. K value for L-phenylalanine was observed as ˜0 in all the respective organic solvents mentioned and (FIG. 18b) screening of 7 different organic solvent for the one-pot production of 2-PE from L-phenylalanine with the KP buffer (100 mM, pH 8.0) containing 0.5% glucose and 50 mM L-phenylalanine.
In-situ product removal technique via extraction have been conducted to remove the obtained 2-PE from the aqueous phase and make its concentration below the inhibitory level. We investigated different type of organic solvents and ionic liquids to perform the extractive biotransformation for 2-PE production via styrene-derived pathway from L-phenylalanine, starting from the analysis of their partition coefficients in the biphasic system. Product and substrate coefficient partitions in organic and aqueous phase were determined by adding different concentration of 2-PE and L-phenylalanine, respectively, into KP buffer (100 mM, pH 8.0) together with the respective organic solvents. Reaction mixtures were incubated for 1 h (280 rpm, 30° C.).

[3] = test system: E. coli (R-PAL-PAD_E-SMO-SOI-PAR); test: Apparent kinetics of the whole-cells (Lineweaver-Burk plot) with and without 2-PE; assay type: cell-based; conditions: competitive inhibition; 3 mM 2-PE, 15 minutes, 5 g cdw/L cells, 10 mM L-phenylalanine, 30° C.
Experimental: as §1
To further investigate the product inhibition, the apparent kinetics of the whole-cells was measured and determined using Lineweaver-Burk plot. 2-PE concentration of 3 mM was used for 15 minutes in order to determine the kinetic, thus the product toxicity towards the cells could be neglected.

OCCc1ccccc1 [2-PE, 2-Phenylethanol]
Concentration of 2-PE that will inhibit the cells (cells): 2-3 gr/L | 2-PE concentration in the aqueous phase that started to inhibit the biotransformation ([1]; 3 h pretreatment, then 50 mM L-phenylalanine, 2 h, 30° C.): above 30 mM | Toxicity of 2-PE to the cells ([1]; cells 10 g cdw/L incubated with 2-PE 3 h, 30° C., KP buffer pH 8.0 / n-hexadecane): toxic | Biotransformation activity of cells pretreated with 2-PE ([1]; pretreated with 90 mM 2-PE): almost no activity | Partition coefficient K value ([2]; most of the organic solvents used vs KP buffer (100 mM, pH 8.0)): > 1 | Partition coefficient ([2]; n-hexadecane vs KP buffer (100 mM, pH 8.0), compared with the other organic solvents): much lower | Ki [3]: 4.8 mM

N[C@@H](Cc1ccccc1)C(=O)O [L-phenylalanine]
Partition coefficient K value ([2]; all the respective organic solvents vs KP buffer (100 mM, pH 8.0)): ~0

Source: US11597954B2, “Bioproduction of phenethyl alcohol, aldehyde, acid, amine, and related compounds” (National University of Singapore, priority 2017, dated 2023)
